What was measured:
[1] = Inhibition of HCV NS4A-tethered single chain NS3 serine protease by spectrophotometric assay; set-up: species or system Hepacivirus hominis
[2] = Selectivity for HCV NS4A-tethered single chain NS3 serine protease over human neutrophil elastase
[3] = tested on: Hepatitis C virus; assay: Antiviral activity against HCV assessed as inhibition of viral RNA replication; type: functional, Hepacivirus hominis
[4] = AUC in rat at 10 mg/kg, po; type: ADME, organism-based; set-up: dose 10 mg/kg, route oral; conditions: plasma

SMILES	Ki [1] [nM]	EC90 [3] [nM]	AUC [4] [µM·h]	Ratio [2]
C=CCNC(=O)C(=O)C(CCC)NC(=O)[C@@H]1[C@@H]2[C@H](CN1C(=O)[C@@H](NC(=O)N[C@@H](CN1CCCCC1=O)C(C)(C)C)C(C)(C)C)C2(C)C (stereo not given in full)	14	350	–	320
C=CCNC(=O)C(=O)C(CCC)NC(=O)[C@@H]1[C@@H]2[C@H](CN1C(=O)[C@@H](NC(=O)N[C@@H](CN1CCCNC1=O)C(C)(C)C)C(C)(C)C)C2(C)C (stereo not given in full)	4.9	180	0.07	360
C=CCNC(=O)C(=O)C(CCC)NC(=O)[C@@H]1[C@@H]2[C@H](CN1C(=O)[C@@H](NC(=O)N[C@@H](CN1CCCC(C)(C)C1=O)C(C)(C)C)C(C)(C)C)C2(C)C (stereo not given in full)	89	–	–	90
C=CCNC(=O)C(=O)C(CCC)NC(=O)[C@@H]1[C@@H]2[C@H](CN1C(=O)[C@@H](NC(=O)N[C@@H](CN1CC3CCC(C3)C1=O)C(C)(C)C)C(C)(C)C)C2(C)C (stereo not given in full)	8	60	0.53	613
C=CCNC(=O)C(=O)C(CCC)NC(=O)[C@@H]1[C@@H]2[C@H](CN1C(=O)[C@@H](NC(=O)N[C@@H](CN1Cc3ccccc3C1=O)C(C)(C)C)C(C)(C)C)C2(C)C (stereo not given in full)	40	–	–	1500
C=CCNC(=O)C(=O)C(CCC)NC(=O)[C@@H]1[C@@H]2[C@H](CN1C(=O)[C@@H](NC(=O)N[C@@H](CN1CCCOC1=O)C(C)(C)C)C(C)(C)C)C2(C)C (stereo not given in full)	10	350	–	100
C=CCNC(=O)C(=O)C(CCC)NC(=O)[C@@H]1[C@@H]2[C@H](CN1C(=O)[C@@H](NC(=O)N[C@@H](CN(C)C(=O)C(C)(C)C)C(C)(C)C)C(C)(C)C)C2(C)C (stereo not given in full)	23000	–	–	–
C=CCNC(=O)C(=O)C(CCC)NC(=O)[C@@H]1[C@@H]2[C@H](CN1C(=O)[C@@H](NC(=O)N[C@@H](CN1CCC(C)(C)CC1=O)C(C)(C)C)C1CCCCC1)C2(C)C (stereo not given in full)	1.9	45	2.09	60
C=CCNC(=O)C(=O)C(CC1CC1)NC(=O)[C@@H]1[C@@H]2[C@H](CN1C(=O)[C@@H](NC(=O)N[C@@H](CN1CCC(C)(C)CC1=O)C(C)(C)C)C(C)(C)C)C2(C)C (stereo not given in full)	15	70	3.52	870
C=CCNC(=O)C(=O)C(CC1CCC1)NC(=O)[C@@H]1[C@@H]2[C@H](CN1C(=O)[C@@H](NC(=O)N[C@@H](CN1CCC(C)(C)CC1=O)C(C)(C)C)C(C)(C)C)C2(C)C (stereo not given in full)	28	70	1	1900
C#CCCC(NC(=O)[C@@H]1[C@@H]2[C@H](CN1C(=O)[C@@H](NC(=O)N[C@@H](CN1CCC(C)(C)CC1=O)C(C)(C)C)C(C)(C)C)C2(C)C)C(=O)C(=O)NCC=C (stereo not given in full)	5	60	0.49	210
C=CCNC(=O)C(=O)C(CCC)NC(=O)[C@@H]1[C@@H]2[C@H](CN1C(=O)[C@@H](NC(=O)OC(C)(C)C)C(C)(C)C)C2(C)C (stereo not given in full)	1500	–	–	–
C=CCNC(=O)C(=O)C(CCC)NC(=O)[C@@H]1[C@@H]2[C@H](CN1C(=O)[C@@H](NC(=O)N[C@@H](CN1CCCCC1)C(C)(C)C)C(C)(C)C)C2(C)C (stereo not given in full)	2300	–	–	–
C=CCNC(=O)C(=O)C(CCC)NC(=O)[C@@H]1[C@@H]2[C@H](CN1C(=O)[C@@H](NC(=O)N[C@@H](CN1CCCCC1=O)C(C)(C)C)C1CCCCC1)C2(C)C (stereo not given in full)	1.8	110	0.7	7
C=CCNC(=O)C(=O)C(CCC)NC(=O)[C@@H]1[C@@H]2[C@H](CN1C(=O)[C@@H](NC(=O)N[C@@H](CN1CCC(C)(C)CC1=O)C(C)(C)C)C1Cc3ccccc3C1)C2(C)C (stereo not given in full)	7	80	–	110
C=CCNC(=O)C(=O)C(CCCC)NC(=O)[C@@H]1[C@@H]2[C@H](CN1C(=O)[C@@H](NC(=O)N[C@@H](CN1CCC(C)(C)CC1=O)C(C)(C)C)C(C)(C)C)C2(C)C (stereo not given in full)	19	80	–	850
CC(C)(C)NC(=O)N[C@H](C(=O)N1C[C@H]2[C@@H]([C@H]1C(=O)NC(CC1CCC1)C(=O)C(N)=O)C2(C)C)C(C)(C)C (stereo not given in full) [BOCEPREVIR]	14	350	–	–

Further lines, with some results ahead:

Ki [1] [nM]	EC90 [3] [nM]	AUC [4] [µM·h]	SMILES	Ratio [2]
17	80	2.3	C=CCNC(=O)C(=O)C(CCC)NC(=O)[C@@H]1[C@@H]2[C@H](CN1C(=O)[C@@H](NC(=O)N[C@@H](CN1CCC(C)(C)CC1=O)C(C)(C)C)C(C)(C)C)C2(C)C (stereo not given in full)	310
37	700	–	C=CCNC(=O)C(=O)C(CCC)NC(=O)[C@@H]1[C@@H]2[C@H](CN1C(=O)[C@@H](NC(=O)N[C@@H](CN1CCCC1=O)C(C)(C)C)C(C)(C)C)C2(C)C (stereo not given in full)	60
91	–	–	C=CCNC(=O)C(=O)C(CCC)NC(=O)[C@@H]1[C@@H]2[C@H](CN1C(=O)[C@@H](NC(=O)N[C@@H](CN(C)C(=O)C1CC1)C(C)(C)C)C(C)(C)C)C2(C)C (stereo not given in full)	280
37	550	–	C=CCNC(=O)C(=O)C(CCC)NC(=O)[C@@H]1[C@@H]2[C@H](CN1C(=O)[C@@H](NC(=O)N[C@@H](CN(C)C(C)=O)C(C)(C)C)C(C)(C)C)C2(C)C (stereo not given in full)	150
42	–	–	C=CCNC(=O)C(=O)C(CCC)NC(=O)[C@@H]1[C@@H]2[C@H](CN1C(=O)[C@@H](NC(=O)N[C@@H](CN(C)C(=O)C(F)(F)F)C(C)(C)C)C(C)(C)C)C2(C)C (stereo not given in full)	75
19	200	–	C=CCNC(=O)C(=O)C(CCC)NC(=O)[C@@H]1[C@@H]2[C@H](CN1C(=O)[C@@H](NC(=O)N[C@@H](CN1Cc3ccccc3CC1=O)C(C)(C)C)C(C)(C)C)C2(C)C (stereo not given in full)	250
9	80	0.68	C=CCNC(=O)C(=O)C(CCC)NC(=O)[C@@H]1[C@@H]2[C@H](CN1C(=O)[C@@H](NC(=O)N[C@@H](CN1CCCCC1=O)C(C)(C)C)C1Cc3ccccc3C1)C2(C)C (stereo not given in full)	18
